Patent US10508109B2 (priority 2015, dated 2019)
Where a name gives a salt, the structure may show the parent alone. Read-outs that look alike come from different tables or passages of the source.

Tests used:
SUV39H2 = SUV39H2 (Homo sapiens (Human), UniProt Q9H5I1); assay: biochemical; type: biochemical; conditions: 3H-SAM 100 nM, H3 Histone Peptide 350 nM, room temperature 3 hours
Method: Assay buffer (4 μL) was added into all the wells, including test compound and control wells (except for Sinefungin control wells), using the Multidrop Combi. The plate was centrifuged at 1000 rpm for 1 min. […] SUV39H2 (8 μL, final conc: optimized for each lot of the enzyme based on specific activity) was added by using the Multidrop Combi. The assay plate was centrifuged at 1000 rpm for 1 min. Assay buffer was used as background control, and incubated at room temperature for 3 hours. The reaction was stopped with 20 μL of 2.5 mg/mL Streptavidin SPA beads (final conc. 50 μg/well) in buffer using the Multidrop Combi and centrifuged for 1 min. The plate was loaded into the Trilux-Microbeta counter and a delayed read of 10 hours was made. The radioactive signal was measured at 1 min/well. Sinefungin and the internal standard compound were used as tool compounds to determine assay performance.
• The following calculations were made using the obtained CPM raw data: Software used: XLFit from IDBS.
For each test plate the following results were calculated: • Average, Standard Deviation, and % CV of Background Controls • Average, Standard Deviation, and % CV of Positive Controls • Z′ value of the plate • IC50 values of standard and test compounds (in nM) • R^2 value of fitted concentration response curve • Hill slope coefficient of fitted concentration response curve • Signal to Noise Ratio

A549 = assay: Cell-based assay, anti-proliferative activity (Cell Counting Kit-8, 72 hours); conditions: Homo sapiens, read-out: A549 IC50
Procedure, shortened: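 Seed cells in 96-well format; add inhibitors; measure growth by CCK-8 at end of exposure; derive IC50.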

[1] = A549 cells, 72 hours exposure, Cell Counting Kit-8

Sequence of SUV39H2 (Q9H5I1 whole entry): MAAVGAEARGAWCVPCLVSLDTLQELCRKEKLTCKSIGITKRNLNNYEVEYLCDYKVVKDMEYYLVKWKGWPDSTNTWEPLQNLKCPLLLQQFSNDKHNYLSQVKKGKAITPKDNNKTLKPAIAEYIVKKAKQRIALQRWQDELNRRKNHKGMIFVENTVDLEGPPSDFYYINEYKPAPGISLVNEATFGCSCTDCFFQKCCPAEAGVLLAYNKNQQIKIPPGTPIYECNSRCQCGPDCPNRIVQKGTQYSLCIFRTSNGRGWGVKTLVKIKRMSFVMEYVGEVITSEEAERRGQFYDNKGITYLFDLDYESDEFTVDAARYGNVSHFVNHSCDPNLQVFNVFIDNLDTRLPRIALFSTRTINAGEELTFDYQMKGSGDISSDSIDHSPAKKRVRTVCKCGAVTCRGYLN

Compound `COc1cc(OC)c(-c2cn3ccc(N4CCN(Cc5ncccn5)CC4)cc3n2)cc1Cl` [Example 352, 2-(5-chloro-2,4-dimethoxyphenyl)-7-(4-(pyrimidin-2-ylmethyl)piperazin-1-yl)imidazo[1,2-a]pyridine] has an IC50 (SUV39H2) of 9.25 nM and an IC50 (A549; [1]) of 10000 nM.
`COc1cc(OC)c(-c2cn3ccc(N4CCN(c5cc(N6CCCCC6)ncn5)CC4)cc3n2)cc1Cl` [Example 353, 2-(5-chloro-2,4-dimethoxyphenyl)-7-(4-(6-(piperidin-1-yl)pyrimidin-4-yl)piperazin-1-yl)imidazo[1,2-a]pyridine] showed an IC50 (SUV39H2) of 41.9 nM and an IC50 (A549; [1]) of 780 nM.
`COc1cc(OC)c(-c2cn3ccc(N4CCN(c5ccnc(N6CCC(N)C6)n5)CC4)cc3n2)cc1Cl` (stereo not shown) [Example 354, 1-(4-(4-(2-(5-chloro-2,4-dimethoxyphenyl)imidazo[1,2-a]pyridin-7-yl)piperazin-1-yl)pyrimidin-2-yl)pyrrolidin-3-amine] showed an IC50 (SUV39H2) of 12.9 nM and an IC50 (A549; [1]) of 490 nM.
`COc1cc(OC)c(-c2cn3ccc(N4CCN(c5cc(N6CCCC6)ncn5)CC4)cc3n2)cc1Cl` [Example 355, 2-(5-chloro-2,4-dimethoxyphenyl)-7-(4-(6-(pyrrolidin-1-yl)pyrimidin-4-yl)piperazin-1-yl)imidazo[1,2-a]pyridine] was tested, and the IC50 (SUV39H2) was 38.8 nM and the IC50 (A549; [1]) was 670 nM.
`COc1cc(OC)c(-c2cn3ccc(N4CCN(c5nccc(N(C)C)n5)CC4)cc3n2)cc1Cl` [Example 356, 2-(4-(2-(5-chloro-2,4-dimethoxyphenyl)imidazo[1,2-a]pyridin-7-yl)piperazin-1-yl)-N,N-dimethylpyrimidin-4-amine] was tested, and the IC50 (SUV39H2) was 60.6 nM and the IC50 (A549; [1]) was 380 nM.
`COc1cc(OC)c(-c2cn3ccc(N4CCN(c5ccnc(N6CCCC(O)C6)n5)CC4)cc3n2)cc1Cl` (stereo not shown) [Example 357, 1-(4-(4-(2-(5-chloro-2,4-dimethoxyphenyl)imidazo[1,2-a]pyridin-7-yl)piperazin-1-yl)pyrimidin-2-yl)piperidin-3-ol] showed an IC50 (SUV39H2) of 25.8 nM and an IC50 (A549; [1]) of 600 nM.
Work on `COc1cc(OC)c(-c2cn3ccc(N4CCN(c5cnc(N6CCN(C)CC6)nc5)CC4)cc3n2)cc1Cl` [Example 358, 2-(5-chloro-2,4-dimethoxyphenyl)-7-(4-(2-(4-methylpiperazin-1-yl)pyrimidin-5-yl)piperazin-1-yl)imidazo[1,2-a]pyridine] yielded an IC50 (SUV39H2) of 17.1 nM and an IC50 (A549; [1]) of 390 nM.
`COc1cc(OC)c(-c2cn3ccc(N4CCN(c5nccc(N6CCNCC6)n5)CC4)cc3n2)cc1Cl` [Example 359, 2-(5-chloro-2,4-dimethoxyphenyl)-7-(4-(4-(piperazin-1-yl)pyrimidin-2-yl)piperazin-1-yl)imidazo[1,2-a]pyridine dihydrochloride] gave an IC50 (SUV39H2) of 12.2 nM and an IC50 (A549; A549, 72 h) of 400 nM.
`COc1cc(OC)c(-c2cn3ccc(N4CCN(c5cc(Cl)nc(N)n5)CC4)cc3n2)cc1Cl` [Example 360, 4-chloro-6-(4-(2-(5-chloro-2,4-dimethoxyphenyl)imidazo[1,2-a]pyridin-7-yl)piperazin-1-yl)pyrimidin-2-amine] gave an IC50 (SUV39H2) of 56 nM and an IC50 (A549; [1]) of 620 nM.
Compound `COc1cc(OC)c(-c2cn3ccc(N4CCN(c5nc(N)nc(Cl)n5)CC4)cc3n2)cc1Cl` [Example 361, 4-chloro-6-(4-(2-(5-chloro-2,4-dimethoxyphenyl)imidazo[1,2-a]pyridin-7-yl)piperazin-1-yl)-1,3,5-triazin-2-amine] has an IC50 (SUV39H2) of 43.3 nM and an IC50 (A549; [1]) of 870 nM.
In the case of `COc1cc(OC)c(-c2cn3ccc(N4CCN(c5ccnc(N6CCNC(C)C6)n5)CC4)cc3n2)cc1Cl` (stereo not shown) [Example 362, 2-(5-chloro-2,4-dimethoxyphenyl)-7-(4-(2-(3-methylpiperazin-1-yl)pyrimidin-4-yl)piperazin-1-yl)imidazo[1,2-a]pyridine], the IC50 (SUV39H2) is reported as 15.5 nM and the IC50 (A549; [1]) is reported as 680 nM.
`COc1cc(OC)c(-c2cn3ccc(N4CCN(c5nccc(N6CCOCC6)n5)CC4)cc3n2)cc1Cl` [Example 363, 4-(2-(4-(2-(5-chloro-2,4-dimethoxyphenyl)imidazo[1,2-a]pyridin-7-yl)piperazin-1-yl)pyrimidin-4-yl)morpholine] gave an IC50 (SUV39H2) of 26.5 nM and an IC50 (A549; [1]) of 490 nM.
For `CNc1ccnc(N2CCN(c3ccn4cc(-c5cc(Cl)c(OC)cc5OC)nc4c3)CC2)n1` [Example 364, 2-(4-(2-(5-chloro-2,4-dimethoxyphenyl)imidazo[1,2-a]pyridin-7-yl)piperazin-1-yl)-N-methylpyrimidin-4-amine], the IC50 (SUV39H2) was 40.7 nM and the IC50 (A549; A549, 72 h) was 550 nM.
Work on `COc1cc(OC)c(-c2cn3ccc(N4CCN(c5nccc(N)c5F)CC4)cc3n2)cc1Cl` [Example 365, 2-(4-(2-(5-chloro-2,4-dimethoxyphenyl)imidazo[1,2-a]pyridin-7-yl)piperazin-1-yl)-3-fluoropyridin-4-amine formate] yielded an IC50 (SUV39H2) of 29.7 nM and an IC50 (A549; A549, 72 h) of 630 nM.
Work on `COc1cc(OC)c(-c2cn3ccc(N4CCN(c5nccc(N6CCC(=O)CC6)n5)CC4)cc3n2)cc1Cl` [Example 366, 1-(2-(4-(2-(5-chloro-2,4-dimethoxyphenyl)imidazo[1,2-a]pyridin-7-yl)piperazin-1-yl)pyrimidin-4-yl)piperidin-4-one] yielded an IC50 (SUV39H2) of 62.9 nM and an IC50 (A549; [1]) of 860 nM.
`COc1cc(OC)c(-c2cn3ccc(N4CCN(c5ccnc(N6CCC(CO)C6)n5)CC4)cc3n2)cc1Cl` (stereo not shown) [Example 367, (1-(4-(4-(2-(5-chloro-2,4-dimethoxyphenyl)imidazo[1,2-a]pyridine-7-yl)piperazin-1-yl)pyrimidin-2-yl)pyrrolidin-3-yl)methanol] gave an IC50 (SUV39H2) of 26.2 nM and an IC50 (A549; [1]) of 980 nM.
In the case of `COc1cc(OC)c(-c2cn3ccc(N4CCCN(c5ncccn5)CC4)cc3n2)cc1Cl` [Example 368, 2-(5-chloro-2,4-dimethoxyphenyl)-7-(4-(pyrimidin-2-yl)-1,4-diazepan-1-yl)imidazo[1,2-a]pyridine], the IC50 (SUV39H2) is reported as 15.7 nM and the IC50 (A549; [1]) is reported as 990 nM.
Compound `COc1cc(OC)c(-c2cn3ccc(N4CCN(c5cnc(N6CCN(S(=O)(=O)C7CC7)CC6)nc5)CC4)cc3n2)cc1Cl` [Example 369, 2-(5-chloro-2,4-dimethoxyphenyl)-7-(4-(2-(4-(cyclopropylsulfonyl)piperazin-1-yl)pyrimidin-5-yl)piperazin-1-yl)imidazo[1,2-a]pyridine 2,2,2-trifluoroacetate] has an IC50 (SUV39H2) of 57.2 nM and an IC50 (A549; [1]) of 630 nM.
Compound `COc1cc(OC)c(-c2cn3ccc(N4CCN(c5nccc(N6CCN(C)CC6)n5)CC4)cc3n2)cc1Cl` [Example 370, 2-(5-chloro-2,4-dimethoxyphenyl)-7-(4-(4-(4-methylpiperazin-1-yl)pyrimidin-2-yl)piperazin-1-yl)imidazo[1,2-a]pyridine] has an IC50 (SUV39H2) of 12 nM and an IC50 (A549; A549, 72 h) of 730 nM.
With `COc1cc(OC)c(-c2cn3ccc(N[C@H]4CC[C@@H](NCc5cccc(C#N)c5)CC4)cc3n2)cc1Cl` [Example 371, 3-(((cis-4-((2-(5-chloro-2,4-dimethoxyphenyl)imidazo[1,2-a]pyridin-7-yl)amino)cyclohexyl)amino)methyl)benzonitrile] the IC50 (SUV39H2) was 16.1 nM and the IC50 (A549; [1]) was 690 nM.
With `CNC1CCN(c2nccc(N3CCN(c4ccn5cc(-c6cc(Cl)c(OC)cc6OC)nc5c4)CC3)n2)C1` (stereo not shown) [Example 372, 1-(4-(4-(2-(5-chloro-2,4-dimethoxyphenyl)imidazo[1,2-a]pyridine-7-yl)piperazin-1-yl)pyrimidin-2-yl)-N-methylpyrrolidin-3-amine trihydrochloride] the IC50 (SUV39H2) was 18.3 nM and the IC50 (A549; A549, 72 h) was 700 nM.
Work on `COc1cc(OC)c(-c2cn3ccc(N4CCN(c5nccc(N6CCN(C(C)=O)CC6)n5)CC4)cc3n2)cc1Cl` [Example 373, 1-(4-(2-(4-(2-(5-chloro-2,4-dimethoxyphenyl)imidazo[1,2-a]pyridin-7-yl)piperazin-1-yl)pyrimidin-4-yl)piperazin-1-yl)ethanone 2,2,2-trifluoroacetate] yielded an IC50 (SUV39H2) of 13.6 nM and an IC50 (A549; [1]) of 640 nM.
`COc1cc(OC)c(-c2cn3ccc(N4CCC(Nc5ccncn5)CC4)cc3n2)cc1Cl` [Example 374, N-(1-(2-(5-chloro-2,4-dimethoxyphenyl)imidazo[1,2-a]pyridin-7-yl)piperidin-4-yl)pyrimidin-4-amine] was tested, and the IC50 (SUV39H2) was 31.4 nM and the IC50 (A549; [1]) was 660 nM.
`COc1cc(OC)c(-c2cn3ccc(N4CCN(c5cc(N6CCNCC6)ncn5)CC4)cc3n2)cc1Cl` [Example 375, 2-(5-chloro-2,4-dimethoxyphenyl)-7-(4-(6-(piperazin-1-yl)pyrimidin-4-yl)piperazin-1-yl)imidazo[1,2-a]pyridine] was tested, and the IC50 (SUV39H2) was 23.1 nM and the IC50 (A549; [1]) was 690 nM.
`COc1cc(OC)c(-c2cn3ccc(N4CCN(c5nccc(N6CCCC(O)C6)n5)CC4)cc3n2)cc1Cl` (stereo not shown) [Example 376, 1-(2-(4-(2-(5-chloro-2,4-dimethoxyphenyl)imidazo[1,2-a]pyridin-7-yl)piperazin-1-yl)pyrimidin-4-yl)piperidin-3-ol] was tested, and the IC50 (SUV39H2) was 66.5 nM and the IC50 (A549; [1]) was 980 nM.
`COc1cc(OC)c(-c2cn3ccc(N4CCN(c5cc(N6CCN(C)CC6)ncn5)CC4)cc3n2)cc1Cl` [Example 377, 2-(5-chloro-2,4-dimethoxyphenyl)-7-(4-(6-(4-methylpiperazin-1-yl)pyrimidin-4-yl)piperazin-1-yl)imidazo[1,2-a]pyridine dihydrochloride] showed an IC50 (SUV39H2) of 14.4 nM and an IC50 (A549; A549, 72 h) of 660 nM.
